From US20250059164A1, “IRAK DEGRADERS AND USES THEREOF” (Kymera Therapeutics, Inc., priority 2023, published 2025)

Target: T1, IRAK4 (Homo sapiens, UniProt Q9NWZ3)
T1 construct: endogenous in cells; host or cells: OCI-LY10
T1 sequence (Q9NWZ3 1-460): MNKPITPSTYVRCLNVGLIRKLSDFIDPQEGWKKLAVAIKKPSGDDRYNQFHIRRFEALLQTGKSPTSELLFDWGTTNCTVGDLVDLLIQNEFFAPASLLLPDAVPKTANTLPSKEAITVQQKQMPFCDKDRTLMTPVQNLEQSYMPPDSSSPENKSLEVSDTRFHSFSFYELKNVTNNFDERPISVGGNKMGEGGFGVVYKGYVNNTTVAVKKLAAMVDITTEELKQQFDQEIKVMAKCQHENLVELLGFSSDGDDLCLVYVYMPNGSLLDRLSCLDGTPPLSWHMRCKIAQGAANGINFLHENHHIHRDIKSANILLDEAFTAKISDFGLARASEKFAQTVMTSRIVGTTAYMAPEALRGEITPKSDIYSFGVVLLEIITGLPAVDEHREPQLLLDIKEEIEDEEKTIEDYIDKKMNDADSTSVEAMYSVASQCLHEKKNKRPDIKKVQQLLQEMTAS
Assay: IRAK4 MSD degradation in OCI-LY10
Type: cell-based
Conditions: OCI-LY10 cells, 24 hrs, Meso Scale Discovery
Protocol: Degradation of IRAK4 in OCI-LY10 was quantitatively measured using Meso Scale Discovery technology. […] Compounds were then added to the assay plates with a final top concentration of 1 to 10 μM in a 1:3 dilution series with total of 8 doses. The assay plates were then incubated for 4 to 24 hours at 37° C. under 5% CO2. […] To prepare MSD assay plates (Meso Scale Discovery Catalog number L15XA-3), the plates were coated with 2 μg/mL capture antibody (mouse Anti-IRAK4 antibody [2H9], ab119942) in PBS, at 40 μL/well. […] Cell lysates were then added to MSD assay plates and the plates were incubated at room temperature for 1 hour. The plates were then washed 3 times with 150 μL/well TBST buffer and 25 μL/well primary detection antibody (rabbit Anti-IRAK4 antibody [Y279], from Abcam. Catalog number ab32511, 1 μg/mL). The assay plates were then incubated at room temperature for 1 hour, washed 3 times with 150 μL/well TBST buffer and 25 μL/well secondary detection antibody, SULFO-TAG anti-rabbit antibody were added (anti-rabbit antibody from Meso Scale Discovery, Catalog number R32AB-1, 1 μg/mL). The assay plates were then incubated at room temperature for 1 hour, washed 3 times with 150 μL/well TBST buffer, and 150 μL/well MSD reading buffer (Meso Scale Discovery catalog number R92TC-2) was added. The plates were then analyzed by a MSD reader (Meso Scale Discovery, Model Quick Plex SQ 120). The data was then analyzed by software Prism 7.0 from GraphPad and the dose-depended IRAK4 degradation were fit using a three-parameter logistic equation to calculate DC50.
The letter codes for IRAK4 DC50 include: A (<0.01 μM); B (0.01 to <0.1 μM); C (0.1 to 0.2 μM); D (>0.2 μM) and E (not tested).

Row | DC50 [nM] | Compound
1 | 10 to 100 | Cn1nc(C2CCC(=O)NC2=O)c2cccc([C@H]3CCN(C[C@H]4CC[C@H](n5cc6cc(NC(=O)c7cncc(C(F)(F)F)n7)ncc6n5)CC4)C[C@@H]3F)c21 (single isomer, unassigned) [I-359]
2 | < 10 | Cn1c(=O)n(C2CCC(=O)NC2=O)c2ccc(F)c([C@@H]3CCN(C[C@H]4CC[C@H](n5cc6cc(NC(=O)c7cncc(C(F)(F)F)n7)ccc6n5)CC4)CC3(F)F)c21 (single isomer, unassigned) [I-376]
3 | < 10 | Cn1c(=O)n(C2CCC(=O)NC2=O)c2ccc(F)c([C@H]3CCN(C[C@H]4CC[C@H](n5cc6cc(NC(=O)c7cncc(C(F)(F)F)n7)ccc6n5)CC4)CC3(F)F)c21 (single isomer, unassigned) [I-377]
4 | < 10 | Cn1nc(C2CCC(=O)NC2=O)c2cccc([C@@H]3CCN(C[C@H]4CC[C@H](n5cc6cc(NC(=O)c7cncc(C(F)(F)F)n7)ccc6n5)CC4)CC3(F)F)c21 (single isomer, unassigned) [I-379]
5 | < 10 | Cn1nc(C2CCC(=O)NC2=O)c2cccc([C@H]3CCN(C[C@H]4CC[C@H](n5cc6cc(NC(=O)c7cncc(C(F)(F)F)n7)ccc6n5)CC4)CC3(F)F)c21 (single isomer, unassigned) [I-380]
6 | < 10 | Cn1c(=O)n([C@@H]2CCC(=O)NC2=O)c2cccc([C@@H]3CCN(C[C@H]4CC[C@H](n5cc6cc(NC(=O)c7cncc(C(F)(F)F)n7)ccc6n5)CC4)CC3(F)F)c21 (single isomer, unassigned) [I-381]
7 | < 10 | Cn1c(=O)n([C@H]2CCC(=O)NC2=O)c2cccc([C@@H]3CCN(C[C@H]4CC[C@H](n5cc6cc(NC(=O)c7cncc(C(F)(F)F)n7)ccc6n5)CC4)CC3(F)F)c21 (single isomer, unassigned) [I-385]
8 | < 10 | Cn1nc([C@H]2CCC(=O)NC2=O)c2cccc([C@@H]3CCN(C[C@H]4CC[C@H](n5cc6cc(NC(=O)c7cncc(C#N)c7)c(C(C)(C)O)cc6n5)CC4)CC3(F)F)c21 (single isomer, unassigned) [I-417]
9 | 100 to 200 | O=C1CCC(Nc2cccc(N3CC(CO[C@H]4CCN(C[C@H]5CC[C@H](n6cc(NC(=O)c7cnn8ccc(N9C[C@H]%10C[C@@H]9CO%10)nc78)c(C(F)F)n6)CC5)C[C@@H]4F)C3)c2)C(=O)N1 (stereo partly drawn) [I-1]
10 | < 10 | CN(C[C@H]1CC[C@H](n2cc3cc(NC(=O)c4cccc(C(F)(F)F)n4)c(C(C)(C)O)cc3n2)CC1)[C@@H]1CCN(c2cccc3c2n(C)c(=O)n3C2CCC(=O)NC2=O)C[C@H]1F (stereo partly drawn) [I-2]
11 | > 200 | CN1C(=O)CCC(n2c(=O)n(C)c3c(N4CC(N5CCN([C@H]6CC[C@H](n7cc(NC(=O)c8cnn9ccc(N%10C[C@H]%11C[C@@H]%10CO%11)nc89)c(C(F)F)n7)CC6)CC5)C4)c(F)ccc32)C1=O (stereo partly drawn) [I-3]
12 | 10 to 100 | O=C1CCC(Nc2cccc(N3CC(CO[C@@H]4CCN(C[C@H]5CC[C@H](n6cc(NC(=O)c7cnn8ccc(N9C[C@H]%10C[C@@H]9CO%10)nc78)c(C(F)F)n6)CC5)C[C@@H]4F)C3)c2)C(=O)N1 (stereo partly drawn) [I-5]
13 | < 10 | Cn1c(=O)n(C2CCC(=O)NC2=O)c2cccc([C@@H]3CCN(C[C@H]4CC[C@H](n5cc6cc(NC(=O)c7cccc(C(F)(F)F)n7)c(C(C)(C)O)cc6n5)CC4)C[C@H]3F)c21 (stereo partly drawn) [I-7]
14 | < 10 | CN(C[C@H]1CC[C@H](n2cc3cc(NC(=O)c4cccc(C(F)(F)F)n4)c(C#N)cc3n2)CC1)[C@H]1CCN(c2cccc3c2n(C)c(=O)n3C2CCC(=O)NC2=O)C[C@H]1F (stereo partly drawn) [I-8]
15 | < 10 | CN(C[C@H]1CC[C@H](n2cc3cc(NC(=O)c4cccc(C(F)(F)F)n4)c(C#N)cc3n2)CC1)[C@H]1CCN(c2cccc3c2n(C)c(=O)n3C2CCC(=O)NC2=O)C[C@@H]1F (stereo partly drawn) [I-9]
16 | < 10 | CN(C[C@H]1CC[C@H](n2cc3cc(NC(=O)c4cccc(C(F)(F)F)n4)c(C#N)cc3n2)CC1)[C@@H]1CCN(c2cccc3c2n(C)c(=O)n3C2CCC(=O)NC2=O)C[C@@H]1F (stereo partly drawn) [I-10]
17 | 10 to 100 | O=C1CCC(Nc2cccc(N3CC(CN4CCN(C[C@H]5CC[C@H](n6cc(NC(=O)c7cnn8ccc(N9C[C@H]%10C[C@@H]9CO%10)nc78)c(C(F)F)n6)CC5)CC4)C3)c2)C(=O)N1 (stereo partly drawn) [I-13]
18 | < 10 | O=C1CCC(c2ccc(N3CC(N4CCN([C@H]5CC[C@H](n6cc(NC(=O)c7cnn8ccc(N9CCCC9)nc78)c(C(F)F)n6)CC5)CC4)C3)cc2Cl)C(=O)N1 (stereo partly drawn) [I-14]

Row | DC50 [nM] | Compound
19 | > 200 | O=C1CCC(Nc2cccc(N3CCN(C[C@H]4CC[C@H](n5cc6cc(NC(=O)c7cccc(C(F)(F)F)n7)ncc6n5)CC4)CC3)c2)C(=O)N1 (stereo partly drawn) [I-15]
20 | 10 to 100 | O=C1CCC(Nc2ccc(N3CC(CN4CCN(C[C@H]5CC[C@H](n6cc(NC(=O)c7cnn8ccc(N9C[C@H]%10C[C@@H]9CO%10)nc78)c(C(F)F)n6)CC5)CC4)C3)cc2Cl)C(=O)N1 (stereo partly drawn) [I-16]
21 | < 10 | Cc1nn(C2CCC(=O)NC2=O)c2cccc(N3CC(O)(CN4CCN(C[C@H]5CC[C@H](n6cc(NC(=O)c7cnn8ccc(N9C[C@H]%10C[C@@H]9CO%10)nc78)c(C(F)F)n6)CC5)CC4)C3)c12 (stereo partly drawn) [I-19]
22 | < 10 | CN(C[C@H]1CC[C@H](n2cc(NC(=O)c3cnn4ccc(N5CCCC5)nc34)c(C(F)F)n2)CC1)[C@H]1CCN(c2cccc3c2n(C)c(=O)n3C2CCC(=O)NC2=O)C[C@@H]1F (stereo partly drawn) [I-22]
23 | < 10 | CN(C[C@H]1CC[C@H](n2cc(NC(=O)c3cnn4ccc(N5CCCC5)nc34)c(C(F)F)c2)CC1)[C@@H]1CCN(c2cccc3c2n(C)c(=O)n3C2CCC(=O)NC2=O)C[C@@H]1F (stereo partly drawn) [I-23]
24 | < 10 | C[C@H]1CN(c2ccn3ncc(C(=O)Nc4cn([C@H]5CC[C@H](CN(C)[C@H]6CCN(c7cccc8c7n(C)c(=O)n8C7CCC(=O)NC7=O)C[C@H]6F)CC5)nc4C(F)F)c3n2)CCO1 (stereo partly drawn) [I-24]
25 | < 10 | C[C@H]1CN(c2ccn3ncc(C(=O)Nc4cn([C@H]5CC[C@H](CN(C)[C@H]6CCN(c7cccc8c7n(C)c(=O)n8C7CCC(=O)NC7=O)C[C@@H]6F)CC5)nc4C(F)F)c3n2)CCO1 (stereo partly drawn) [I-25]
26 | < 10 | C[C@H]1CN(c2ccn3ncc(C(=O)Nc4cn([C@H]5CC[C@H](CN(C)C6CCN(c7cccc8c7n(C)c(=O)n8C7CCC(=O)NC7=O)C[C@@H]6F)CC5)nc4C(F)F)c3n2)CCO1 (stereo partly drawn) [I-26]
27 | < 10 | CN(C[C@H]1CC[C@H](n2cc3cc(NC(=O)c4cccc(C(F)(F)F)n4)ccc3n2)CC1)[C@H]1CCN(c2cccc3c2n(C)c(=O)n3C2CCC(=O)NC2=O)C[C@H]1F (stereo partly drawn) [I-31]
28 | < 10 | CN(C[C@H]1CC[C@H](n2cc3cc(NC(=O)c4cccc(C(F)(F)F)n4)ccc3n2)CC1)C1CCN(c2cccc3c2n(C)c(=O)n3C2CCC(=O)NC2=O)C[C@@H]1F (stereo partly drawn) [I-32]
29 | 10 to 100 | CN(C[C@H]1CC[C@H](n2cc3cc(NC(=O)c4cccc(C(F)(F)F)n4)ccc3n2)CC1)[C@H]1CCN(c2cccc3c2n(C)c(=O)n3C2CCC(=O)NC2=O)C[C@@H]1F (stereo partly drawn) [I-33]
30 | < 10 | CN(C[C@H]1CC[C@H](n2cc3cc(NC(=O)c4cccc(C(F)(F)F)n4)ncc3n2)CC1)[C@H]1CCN(c2cccc3c2n(C)c(=O)n3C2CCC(=O)NC2=O)C[C@H]1F (stereo partly drawn) [I-34]
31 | < 10 | CN(C[C@H]1CC[C@H](n2cc3cc(NC(=O)c4cccc(C(F)(F)F)n4)ncc3n2)CC1)[C@@H]1CCN(c2cccc3c2n(C)c(=O)n3C2CCC(=O)NC2=O)C[C@@H]1F (stereo partly drawn) [I-35]
32 | < 10 | CC(C)Oc1cc2nc([C@H]3CC[C@H](CN4CCC(c5ccc6c(c5)n(C)c(=O)n6C5CCC(=O)NC5=O)CC4)CC3)cn2cc1C(=O)Nc1cccn([C@H]2C[C@H]2F)c1=O (stereo partly drawn) [I-37]
33 | < 10 | O=C1CCC(c2ccc(N3CC(CO[C@@H]4CCN(C[C@H]5CC[C@H](n6cc(NC(=O)c7cnn8ccc(N9C[C@H]%10C[C@@H]9CO%10)nc78)c(C(F)F)n6)CC5)C[C@@H]4F)C3)cc2Cl)C(=O)N1 (stereo partly drawn) [I-38]
34 | > 200 | Cn1c(NC(=O)c2cccc(C(F)(F)F)n2)cc2cn([C@H]3CC[C@H](CN4CC[C@@H](c5cccc6c5n(C)c(=O)n6C5CCC(=O)NC5=O)C(F)(F)C4)CC3)nc2c1=O (stereo partly drawn) [I-39]
35 | < 10 | CN(C[C@H]1CC[C@H](n2cc(NC(=O)c3cnn4ccc(N5CCCC5)nc34)c(C(F)F)n2)CC1)[C@@H]1CCN(c2cccc3c2n(C)c(=O)n3C2CCC(=O)NC2=O)C[C@H]1F (stereo partly drawn) [I-40]
36 | < 10 | Cc1nn(C2CCC(=O)NC2=O)c2cccc(N3CCN(C[C@@H]4COC5(C4)CN(C[C@H]4CC[C@H](n6cc(NC(=O)c7cnn8ccc(N9C[C@H]%10C[C@@H]9CO%10)nc78)c(C(F)F)n6)CC4)C5)CC3)c12 (stereo partly drawn) [I-42]
